Measurements as given in ChEMBL document CHEMBL3616383, “Discovery of novel 5,6,7,8-tetrahydro[1,2,4]triazolo[4,3-a]pyridine derivatives as γ-secretase modulators” (Bioorg Med Chem Lett, 2015).

Key:
Mus musculus [1] = test: Reduction in amyloid beta (1 to 42) levels in C57BL/6J mouse brain at 10 mg/kg, po after 3 hrs; type: functional
[2] = Inhibition of gamma-secretase in rat primary neuronal cells assessed as reduction in amyloid beta (1 to 42) production; type: cell-based; conditions: Primary neuron
[3] = Lipophilicity, log D of the compound at pH 7.4 by reversed phase chromatography; type: physicochemical; conditions: buffer
Mus musculus [4] = test: Reduction in amyloid beta (1 to 42) levels in C57BL/6J mouse plasma at 10 mg/kg, po after 3 hrs; type: functional
[5] = Inhibition of gamma-secretase in rat primary neuronal cells assessed as reduction in amyloid beta (1 to 40) production; type: cell-based; conditions: Primary neuron
[6] = Drug level in C57BL/6J mouse plasma at 10 mg/kg, po after 3 hrs; type: ADME, organism-based
Mus musculus [7] = test: Reduction in amyloid beta (1 to 40) levels in C57BL/6J mouse plasma at 10 mg/kg, po after 3 hrs; type: functional
Mus musculus [8] = test: Reduction in amyloid beta (1 to 40) levels in C57BL/6J mouse brain at 10 mg/kg, po after 3 hrs; type: functional
[9] = Inhibition of gamma-secretase-mediated Notch processing in rat primary neuronal cells; type: cell-based; conditions: Primary neuron
[10] = Drug level in C57BL/6J mouse cortex at 10 mg/kg, po after 3 hrs; type: ADME, organism-based; conditions: read-out: Drug uptake

| SMILES | IC50 [2] | chromatographic logD [3] | further results |
| --- | --- | --- | --- |
| COc1cc(-c2nnc3n2CCC[C@@H]3c2ccc(Cl)cc2C(F)(F)F)ccc1-c1cnc(C)o1 | 60 nM | 3.5 | % of vehicle at 10 mg/kg (Mus musculus [1]): 50%; % of vehicle at 10 mg/kg (Mus musculus [4]): 31%; IC50 [5]: 490 nM; concentration at 3 h [6]: 6450 ng/mL; % of vehicle at 10 mg/kg (Mus musculus [7]): 63%; % of vehicle at 10 mg/kg (Mus musculus [8]): 75%; IC50 [9]: > 10 µM; concentration at 3 h [10]: 2330 ng/g |
| COc1cc(-c2nnc3n2CCCC3c2cc(C(F)(F)F)ccc2C(F)(F)F)ccc1-c1cnc(C)o1 (stereo not drawn) | 300 nM | 3.3 | – |
| COc1cc(-c2nnc3n2CCOC3c2ccc(Cl)c(Cl)c2)ccc1-c1cnc(C)o1 (stereo not drawn) | 530 nM | 3.1 | – |
| COc1cc(-c2nnc3n2CCCC3c2ccc(F)cc2)ccc1-c1cnc(C)o1 (stereo not drawn) | 1500 nM | 2.4 | – |
| COc1cc(-c2nnc3n2CCCC3c2ccccc2C(F)(F)F)ccc1-c1cnc(C)o1 (stereo not drawn) | 380 nM | 3 | – |
| COc1cc(-c2nnc3n2CCCC3c2ccc(N3CCOCC3)cc2)ccc1-c1cnc(C)o1 (stereo not drawn) | 2300 nM | 2.3 | – |
| COc1cc(-c2nnc3n2CCC3c2ccc(Cl)c(Cl)c2)ccc1-c1cnc(C)o1 (stereo not drawn) | 630 nM | 3.3 | – |
| COc1cc(-c2nnc3n2CCCCC3c2ccc(Cl)c(Cl)c2)ccc1-c1cnc(C)o1 (stereo not drawn) | 220 nM | 3.5 | – |
| COc1cc(-c2nnn3c2CCCC3c2ccc(Cl)c(Cl)c2)ccc1-c1cnc(C)o1 (stereo not drawn) | 210 nM | 4.2 | – |
| COc1cc(-c2nnc3n2CCCC3c2ccc(C(F)(F)F)cc2)ccc1-c1cnc(C)o1 (stereo not drawn) | 510 nM | 2.9 | – |
| COc1cc(-c2nnc3n2CCCC3c2cccc(C(F)(F)F)c2)ccc1-c1cnc(C)o1 (stereo not drawn) | 370 nM | 2.8 | – |
| COc1cc(-c2nnc3n2CCC[C@H]3c2ccc(Cl)cc2C(F)(F)F)ccc1-c1cnc(C)o1 | 830 nM | 3.5 | – |
| COc1cc(-c2nnc3n2CCCC3c2ccc(Cl)c(Cl)c2)ccc1-c1cnc(C)o1 (stereo not drawn) | 210 nM | 3.2 | – |
| COc1cc(-c2nnc3n2CCCC3c2ccc(Cl)c(C(F)(F)F)c2)ccc1-c1cnc(C)o1 (stereo not drawn) | 220 nM | 3.2 | – |
| COc1ccc(C2CCCn3c(-c4ccc(-c5cnc(C)o5)c(OC)c4)nnc32)cc1 (stereo not drawn) | 1900 nM | 2.4 | – |
| COc1cc(-c2nnc(Cc3ccc(Cl)c(Cl)c3)[nH]2)ccc1-c1cnc(C)o1 | 2000 nM | 4.1 | – |
| COc1cc(-c2nc3n(n2)CCCC3c2ccc(Cl)c(Cl)c2)ccc1-c1cnc(C)o1 (stereo not drawn) | 860 nM | 4.4 | – |
| COc1cc(-c2nnc3n2CCC=C3c2ccc(Cl)c(Cl)c2)ccc1-c1cnc(C)o1 | 600 nM | 3.6 | – |
| COc1cc(-c2nnc3n2CCCC3c2ccc(Cl)cc2C(F)(F)F)ccc1-c1cnc(C)o1 (stereo not drawn) | 84 nM | 3.5 | – |
| COc1cc(-c2nnc3n2CCCC3c2ccc(Cl)cc2)ccc1-c1cnc(C)o1 (stereo not drawn) | 570 nM | 2.8 | – |
